Our source for the EC50 values is patent US12534458B2, “Spiropiperidine allosteric modulators of nicotinic acetylcholine receptors” (Merck Sharp & Dohme LLC, priority 2019, dated 2026).

SMILES strings stand for the structures. pEC50: −log10 of the molar value.

Chain of human α7 nAChR (P36544 23-502): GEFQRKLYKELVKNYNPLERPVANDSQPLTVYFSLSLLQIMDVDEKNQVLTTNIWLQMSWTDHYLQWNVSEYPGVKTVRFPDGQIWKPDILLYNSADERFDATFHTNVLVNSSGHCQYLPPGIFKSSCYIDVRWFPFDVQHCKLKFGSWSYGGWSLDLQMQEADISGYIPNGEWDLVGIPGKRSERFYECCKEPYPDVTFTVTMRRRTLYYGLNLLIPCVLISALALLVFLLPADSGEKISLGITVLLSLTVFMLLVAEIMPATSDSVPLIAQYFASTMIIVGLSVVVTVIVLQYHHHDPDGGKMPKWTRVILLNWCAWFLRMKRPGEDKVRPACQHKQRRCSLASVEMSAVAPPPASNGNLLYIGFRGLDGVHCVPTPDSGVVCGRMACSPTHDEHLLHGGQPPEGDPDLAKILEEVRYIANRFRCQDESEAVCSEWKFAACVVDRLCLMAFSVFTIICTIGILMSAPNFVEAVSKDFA

The experiment deals with human α7 nAChR (Homo sapiens (Human), UniProt P36544). The experiment is described as follows: Automated patch-clamp electrophysiology functional assay (Assay A). The format is cell-based. As to conditions: IonFlux HT whole-cell population patch, HEK cell line stably expressing human RIC-3 and human α7, 40 μM acetylcholine. As for the experimental part:
The α7 nAChR positive allosteric modulator (PAM) activity of the present compounds may be tested using assays known in the art. The α7 nAChR PAMs described herein have activities in an automated patch-clamp electrophysiology functional assay as described in the examples. The assay was performed using the IonFlux HT in a whole-cell, population patch configuration. See Golden et al. Assay Drug Dev. Technol. (2011) 9:608-619. The compounds were assessed for their ability to modulate the function of the human α7 nAChR stably expressed in a HEK cell line both in the presence, and in the absence of the natural α7 agonist acetylcholine. By performing a series of such measurements at different concentrations, the effective concentration of the α7 nAChR PAMs (EC50) was determined. See Spencer et al. Assay Drug Dev. Technol. (2012) 10:313-324.
Direct activation of α7 (agonism), and potentiation of acetylcholine-evoked α7 currents was determined as follows:
Automated patch-clamp electrophysiology was performed using the IonFlux HT (Fluxion Biosciences Inc., San Francisco, CA) in the whole-cell, population patch configuration. Test compounds were assessed for their ability to modulate the function of the α7 nicotinic acetylcholine receptor both in the presence, and in the absence of the natural α7 agonist acetylcholine. A HEK cell line stably expressing both human RIC-3 and human α7 (PrecisION hnAChR α7/RIC-3, Eurofins Pharma, St. Charles, MO) was cultured in 175 cm^2 triple-layer tissue culture flasks to no more than 90% confluency in DMEM/F-12 growth media supplemented with 10% heat-inactivated fetal bovine serum, 1% non-essential amino acids, 0.625 μg/mL Puromycin, and 400 μg/mL Geneticin. Immediately prior to assay, cells were detached by first aspirating growth media, rinsing with Dulbecco's phosphate buffered saline, and then adding 10 mL of Accutase (Innovative Cell Technologies, San Diego, CA) to the flask and then incubating at 37° C. for 5 minutes. Detached cells were then recovered by the addition of 40 mL of CHO-serum-free media supplemented with 25 mM HEPES, and rocked gently in a 50 mL conical tube for 20 minutes prior to patch-clamp assay. After recovery, cells were pelleted by centrifugation at 1,000 RPM for 1 minute in a compact bench top centrifuge; recovery media was aspirated and cells were resuspended in external recording solution (150 mM NaCl, 5 mM KCl, 2 mM CaCl2), 1 mM MgCl2, 10 mM HEPES, 12 mM dextrose) to a density of 5.0×10^6 cells/mL. The cell suspension was added to the cell inlet wells on an IonFlux HT population patch plate which had previously been rinsed and primed with deionized H2O. Test compounds were serially diluted in DMSO and then resuspended to the final test concentration in external recording solution, with, or without 40 μM acetylcholine added to the external recording solution; test compounds were then transferred to the IonFlux HT population patch plate. Internal recording solution (110 mM TrisPO4, 28 mM TrisBase, 0.1 mM CaCl2), 2 mM MgCl2, 11 mM EGTA, 4 mM MgATP) was added to the internal recording solution inlet wells on the IonFlux HT patch plate previously loaded with cells and test compounds, and the plate loaded into the IonFlux HT instrument. A protocol was executed on the IonFlux HT to trap the cells, break into the cells, and establish the whole-cell recording configuration; cells were voltage-clamped at a holding potential of −60 mV for the duration of the experiment, all experiments were conducted at room temperature, and the IonFlux HT injection pressure was 8 psi for solution applications. Upon establishing the whole-cell configuration, external recording solution was perfused into the recording chambers for 120 seconds and then 40 μM acetylcholine was applied for 1 second and immediately washed off with external recording solution for 60 seconds. […]
In general terms: In patch-clamp work, channel activity is measured electrically.
Regarding `NS(=O)(=O)N1CCC2(CC1)C(c1cccc(-c3conc3C3CC3)n1)C2(F)F` (single isomer, unassigned) [Example C2, 2-[6-(3-Cyclopropylisoxazol-4-yl)pyridin-2-yl]-1,1-difluoro-6-azaspiro[2.5]octane-6-sulfonamide], the pEC50 is 6.07.

In the case of `NS(=O)(=O)N1CCC2(CC1)[C@H](c1nccc(-c3ccccc3)n1)C2(F)F` [Example 4, (2R)-1,1-Difluoro-2-(4-phenylpyrimidin-2-yl)-6-azaspiro[2.5]octane-6-sulfonamide], the pEC50 was 5.72.

In the case of `NS(=O)(=O)N1CCC2(CC1)[C@H](c1cc(-c3ccccc3)ccn1)C2(F)F` [Example A1, (2R)-1,1-Difluoro-2-(4-phenylpyridin-2-yl)-6-azaspiro[2.5]octane-6-sulfonamide], the pEC50 was 6.72.

With `NS(=O)(=O)N1CCC2(CC1)[C@@H](c1cccc(-c3ccc(C(F)(F)F)cc3)n1)C2(F)F` [Example B1, (2S)-1,1-Difluoro-2-{6-[4-(trifluoromethyl)phenyl]pyridin-2-yl}-6-azaspiro[2.5]octane-6-sulfonamide], the negative-log EC50 (pEC50) is 5.36.

On to `NS(=O)(=O)N1CCC2(CC1)CC2c1cccc(-c2ccccc2)n1` (stereo not shown) [Example 3, 1-(6-Phenylpyridin-2-yl)-6-azaspiro[2.5]octane-6-sulfonamide], for which the negative logarithm of the EC50 (pEC50) was 5.52.

On to `NS(=O)(=O)N1CCC2(CC1)[C@H](c1cccc(-c3ccccc3C3CC3)n1)C2(F)F` [Example A2, (2R)-2-[6-(2-Cyclopropylphenyl)pyridin-2-yl]-1,1-difluoro-6-azaspiro[2.5]octane-6-sulfonamide], for which the pEC50 was 6.08.

Turning to `Cc1ccccc1-c1cccc([C@@H]2C(F)(F)C23CCN(S(N)(=O)=O)CC3)n1` [Example 6, (2R)-1,1-Difluoro-2-[6-(2-methylphenyl)pyridin-2-yl]-6-azaspiro[2.5]octane-6-sulfonamide], the pEC50 was 5.66.

Take `NS(=O)(=O)N1CCC2(CC1)C(c1cccc(-c3cccc(C(F)(F)F)c3)c1)C2(F)F` (racemic) [Example C1, 1,1-Difluoro-2-[3′-(trifluoromethyl)biphenyl-3-yl]-6-azaspiro[2.5]octane-6-sulfonamide]: the pEC50 was 6.37.

As to `NS(=O)(=O)N1CCC2(CC1)C[C@H]2c1nc2ccccc2s1` [Example 1, (1R)-1-(1,3-Benzothiazol-2-yl)-6-azaspiro[2.5]octane-6-sulfonamide], the pEC50 is 6.03.

Regarding `NS(=O)(=O)N1CCC2(CC1)[C@H](c1nc3ccccc3o1)C2(F)F` [Example A3, (2R)-2-(1,3-Benzoxazol-2-yl)-1,1-difluoro-6-azaspiro[2.5]octane-6-sulfonamide], the pEC50 was 6.00.

Regarding `NS(=O)(=O)N1CCC2(CC1)C(c1cccc(-c3ccccc3)n1)C2(F)F` (stereo not shown) [Example 2, 1,1-Difluoro-2-(6-phenylpyridin-2-yl)-6-azaspiro[2.5]octane-6-sulfonamide], the negative logarithm of the EC50 (pEC50) is 5.80.

As to `NS(=O)(=O)N1CCC2(CC1)[C@@H](c1cc(-c3ccccc3)ccn1)C2(F)F` [Example B2, (2S)-1,1-Difluoro-2-(4-phenylpyridin-2-yl)-6-azaspiro[2.5]octane-6-sulfonamide], the pEC50 is 5.77.

Regarding `NS(=O)(=O)N1CCC2(CC1)[C@H](c1cccc(-c3ccc(C(F)(F)F)cc3)n1)C2(F)F` [Example 5, (2R)-1,1-Difluoro-2-{6-[4-(trifluoromethyl)phenyl]pyridin-2-yl}-6-azaspiro[2.5]octane-6-sulfonamide], the pEC50 was 6.47.

As usually defined, the pEC50 is −log10 of the EC50, conventionally taken in molar units.
